Values joined by “and” are separate entries in the source; they are usually repeats but may differ in a detail not shown here. Equal entries are not always repeated.
How the values were obtained:
[1] = test system: embryonic stages of S. digitata; assay: Externalization of phosphatidyl serine, Annexin-V-PE staining, flow cytometry; format: cell-based, Setaria digitata; conditions: for GMI (Geometric Mean Intensity) of Fluorescence, Annexin-V-PE Staining: 24 hr; for externalization of Phosphatidyl serine (result in words): Microfilariae and eggs, Annexin-V-PE staining
Procedure: Adult female filarial worms Setaria digitata were collected from the peritoneum of cattle, slaughtered at a nearby abattoir in sterile Hanks Balanced Salt Solution (HBSS) medium (Sigma H 2387-1L) and transported to the laboratory in a sterile container. The medium containing 1% glucose (Sigma G 7528), Penicillin 100 units/ml, Streptomycin 100 μg/ml (Sigma P 4333). And Amphotericin-B 0.25 μg/ml (Sigma A 2942) was buffered with NaHCO3 (Sigma S 5761). About 5 to 7 worms were taken in a petridish, washed three times in medium, dissected into small pieces in 10 ml of medium under sterile conditions and incubated at 37° C. for 30 minutes to allow the release of embryonic stages (eggs and microfilariae) into the medium. The embryonic stages were harvested into sterile 15 ml. centrifuge tubes and washed three times by centrifuging at 300 g for 10 minutes each with medium and the final pellet was suspended in 1 ml. of RPMI-1640 medium (Sigma R 8005) supplemented with 10% FBS (Sigma F 2442) The number of embryonic stages of S. digitata in the above preparation were counted using light microscope, and the suspension was taken in RPMI-1640 medium containing 10% FBS at 1×10^5 embryonic stages/ml. One ml. each was dispensed into individual wells of a 24 well tissue culture plate. One set of wells was taken as untreated control containing only medium with 10% FBS. […] Motility of the Mf was scored under an inverted microscope. After appropriate treatment and incubation, each set of the cultured embryonic stages of S. digitata were harvested from the 24 well tissue culture plate separately in 15 ml. sterile centrifuge tubes, washed with PBS twice and stained as per requirement following manufacturer's instructions as described below. This was followed by two times washing with PBS and final suspension of the stained embryonic stages was taken in 0.5 ml of sheath fluid (BD Biosciences 342003) before their acquisition in the flow cytometer (BD FACS Calibur, Becten and Dickinson, USA). Analysis was performed on 10,000-acquired events depicted as Dot Plots and Histogram Plots using Cellquest Pro soft ware. All plots were representative of at least 3 experiments. The distinctly clustered populations obtained consistently in the Dot plots for the intra uterine embryonic stages of S. digitata (FIG. 1 a) were gated for Mfs (R-1) and eggs (R-2 and R-3) and analyzed for different assays for apoptosis as described below. The externalization of phosphatidyl serine was detected by staining the embryonic stages with Annexin-V-PE (BD Biosciences 556421) as per the instructions of the manufacturer. Briefly, the embryonic stages of S. digitata were subjected to various treatments in culture for 24 hrs. After the said period of incubation the embryonic stages were harvested, washed with ice cold PBS twice and resuspended in 100 μl of 1× Annexin-V binding buffer (BD Biosciences 556454) at 1×10^5 embryonic stages per ml. to which 5 μl of Annexin-V-PE was added. After 15 minutes of Incubation in dark at room temperature another 400 μl of 1× Annexin-V binding buffer was added to the above suspension. The resulting 500 μl suspension of Annexin-V-PE stained embryonic stages was then acquired and analyzed by flow cytometer.

[2] = test system: embryonic stages of S. digitata; assay: Fragmentation of chromosomal DNA, TUNEL staining; format: cell-based, Setaria digitata; conditions: for GMI (Geometric Mean Intensity) of Fluorescence, TUNEL Staining: 24 hr; for induction of DNA fragmentation (result in words): Mf stages and eggs, TUNEL assay
Procedure: Adult female filarial worms Setaria digitata were collected from the peritoneum of cattle, slaughtered at a nearby abattoir in sterile Hanks Balanced Salt Solution (HBSS) medium (Sigma H 2387-1L) and transported to the laboratory in a sterile container. The medium containing 1% glucose (Sigma G 7528), Penicillin 100 units/ml, Streptomycin 100 μg/ml (Sigma P 4333). And Amphotericin-B 0.25 μg/ml (Sigma A 2942) was buffered with NaHCO3 (Sigma S 5761). About 5 to 7 worms were taken in a petridish, washed three times in medium, dissected into small pieces in 10 ml of medium under sterile conditions and incubated at 37° C. for 30 minutes to allow the release of embryonic stages (eggs and microfilariae) into the medium. The embryonic stages were harvested into sterile 15 ml. centrifuge tubes and washed three times by centrifuging at 300 g for 10 minutes each with medium and the final pellet was suspended in 1 ml. of RPMI-1640 medium (Sigma R 8005) supplemented with 10% FBS (Sigma F 2442) The number of embryonic stages of S. digitata in the above preparation were counted using light microscope, and the suspension was taken in RPMI-1640 medium containing 10% FBS at 1×10^5 embryonic stages/ml. One ml. each was dispensed into individual wells of a 24 well tissue culture plate. One set of wells was taken as untreated control containing only medium with 10% FBS. […] Motility of the Mf was scored under an inverted microscope. After appropriate treatment and incubation, each set of the cultured embryonic stages of S. digitata were harvested from the 24 well tissue culture plate separately in 15 ml. sterile centrifuge tubes, washed with PBS twice and stained as per requirement following manufacturer's instructions as described below. This was followed by two times washing with PBS and final suspension of the stained embryonic stages was taken in 0.5 ml of sheath fluid (BD Biosciences 342003) before their acquisition in the flow cytometer (BD FACS Calibur, Becten and Dickinson, USA). Analysis was performed on 10,000-acquired events depicted as Dot Plots and Histogram Plots using Cellquest Pro soft ware. All plots were representative of at least 3 experiments. The distinctly clustered populations obtained consistently in the Dot plots for the intra uterine embryonic stages of S. digitata (FIG. 1 a) were gated for Mfs (R-1) and eggs (R-2 and R-3) and analyzed for different assays for apoptosis as described below. Presence of fragmentation of chromosomal DNA was detected by TUNEL staining. Briefly, the treated embryonic stages were harvested, fixed with 1% Para formaldehyde followed by washing with PBS and stored in 70% ethanol at −20° C.

Compound | GMI (Geometric Mean Intensity) of Fluorescence, Annexin-V-PE Staining ([1]; Eggs, 10 μM) | externalization of Phosphatidyl serine (result in words) [1] | GMI (Geometric Mean Intensity) of Fluorescence, Annexin-V-PE Staining ([1]; Microfilariae, 10 μM) | GMI (Geometric Mean Intensity) of Fluorescence, TUNEL Staining ([2]; Eggs, 10 μM) | induction of DNA fragmentation (result in words) [2] | GMI (Geometric Mean Intensity) of Fluorescence, TUNEL Staining ([2]; Microfilariae, 10 μM) | efficiency in induction of apoptosis (comparison in words) ([2]; Plumbagin compared with H2O2) | GMI (Geometric Mean Intensity) of Fluorescence, Annexin-V-PE Staining ([1]; Eggs, 1 μM) | GMI (Geometric Mean Intensity) of Fluorescence, Annexin-V-PE Staining ([1]; Microfilariae, 1 μM) | GMI (Geometric Mean Intensity) of Fluorescence, TUNEL Staining ([2]; Eggs, 1 μM) | GMI (Geometric Mean Intensity) of Fluorescence, TUNEL Staining ([2]; Microfilariae, 1 μM)
CC1=CC(=O)c2c(O)cccc2C1=O [Plumbagin] | 81.25 and 85.22 and 89.36 | dose dependent externalization of Phosphatidyl serine was observed | 11.95 and 12.52 and 13.56 | 104.33 and 109.68 and 105.32 | dose dependent induction of DNA fragmentation | 40.65 and 38.97 and 45.76 | more efficient than H2O2 in induction of apoptosis | – | – | – | –
OO [H2O2] | 30.95 and 33.55 and 35.75 | dose dependent externalization of Phosphatidyl serine was observed | 9.75 and 11.02 and 10.35 | 70.85 and 71.36 and 72.56 | dose dependent induction of DNA fragmentation | 13.62 and 12.52 and 14.16 | – | – | – | – | –
CN[C@@H]1C[C@H]2O[C@@](C)([C@@H]1OC)n1c3ccccc3c3c4c(c5c6ccccc6n2c5c31)C(=O)NC4 [Staurosporine] | – | did not mediate such effects on Phosphatidyl serine externalization | – | – | – | – | – | 27.59 and 28.53 and 30.63 | 7.24 and 8.03 and 8.52 | 65.77 and 60.33 and 71.25 | 10.67 and 10.02 and 12.15
